One series has as its system Myzus persicae. The series is described as follows: Green peach aphid (Myzus persicae) mortality on dipped pepper plants. The format is in vivo. The note with it: 120 h, pepper plants in 2nd leaf-pair stage dipped into test solution, aphid mortality determined after 5 days, read-out: mortality in comparison with untreated controls. As to the method:
I.b. Green Peach Aphid (Myzus persicae)
Pepper plants in the 2nd leaf-pair stage (variety ‘California Wonder’) are infested with approximately 40 laboratory-reared aphids by placing infested leaf sections on top of the test plants. The leaf sections are removed after 24 hours. The leaves of the intact plants are dipped into gradient solutions of the test compound. Aphid mortality on the treated plants, relative to mortality on check plants, is determined after 5 days.

The subject of the next series is Aphis gossypii. The series is described as follows: Cotton aphid (Aphis gossypii) mortality on dipped cotton plants. The note with it: 120 h, cotton plants in cotyledon stage dipped into test solution, aphid mortality determined after 5 days, read-out: mortality in comparison with untreated controls. The format is in vivo. As to the method: I. Cotton Aphid (Aphis gossypii)
Cotton plants in the cotyledon stage (variety ‘Delta Pine’) are infested with approximately 100 laboratory-reared aphids by placing infested leaf sections on top of the test plants. The leaf sections are removed after 24 hours. The cotyledons of the intact plants are dipped into gradient solutions of the test compound. Aphid mortality on the treated plants, relative to mortality on check plants, is determined after 5 days.

On to `CC1(C)Cc2ccccc2C1NC1=NCCS1` (stereo not drawn) [Example 22, (4,5-Dihydro-thiazol-2-yl)-(2,2-dimethyl-indan-1-yl)-amine], for which the mortality at 300 ppm in the series with Myzus persicae and with Aphis gossypii was greater than 70% each time. Consider `CC1(C)Cc2ccccc2C1N=C1SCCN1C1=NCCS1` (stereo not drawn), for which the melting point (commonly the temperature, or range, at which the solid turns liquid) lay in the range of 161 to 163 °C.
